Test results reported in US20120010235A1, “N-SUBSTITUTED PYRROLIDINES” (priority 2010, published 2012).
Counter-ions that a name gives are not always drawn.

system: SJSA, an osteocarcinoma cell line; experiment: antiproliferative activity assay (tetrazolium dye, MTT) in SJSA cells; settings: cell-based MTT assay, inhibition of cell proliferation, read-out: TT IC50
Protocol: The pharmacological properties of the compounds of this invention may be confirmed by a number of pharmacological assays. The exemplified antiproliferative activity assay which follows has been carried out with the compounds according to the invention.
Cell proliferation was evaluated by the tetrazolium dye assay according to the procedure of Denizot and Lang (Denizot, F. and Lang, R. (1986) Rapid colorimetric assay for cell growth and survival. Modification to the terrazolium dye procedure giving improved sensitivity and reliability. J. Immunol. Methods 89, 271-277). The cell line used was SJSA, an osteocarcinoma cell line obtained from the American Type Cell Culture Collection (ATCC; Rockville, Md.). The cells were grown in PRMI with 10% FBS (Fetal Bovine Serum, Invitrogen).
Cells were plated at the appropriate seeding density to give logarithmic growth over the course of the assay in a 96-well tissue culture plate. Plates were incubated overnight at 37° C. in a humidified incubator with 5% CO2. The next day, test compounds were serially diluted 1:3 in the appropriate medium containing 3% DMSO. One-tenth final volume of each dilution was added […] to the plates containing cells. The same volume of 3% DMSO in medium was added to a row of control wells. Thus, the final concentration of DMSO in all wells was 0.3%. The plates were returned to the incubator, and at set time points (determined by their growth curves) plates were analyzed as follows: 3-(4,5-dimethylthiazole-2-yl)-2,5-diphenyl-2H-tetrazolium bromide (thiazolyl blue; MTT; Sigma) was added to each well to yield a final concentration of 1 mg/ml. Plates were returned to the incubator for 2.5 hours. The MTT-containing medium was removed and the resulting formazan metabolite was solubilized in 100% ethanol with shaking for 15 minutes at room temperature. Absorbances were read in a microtiter plate reader at a wavelength of 570 nm with a 650 nm reference. Percent inhibition (% INH) was calculated by subtracting the blank from all wells, then subtracting the ratio of the average absorbance of each triplicate (SAVE) by the average of the controls (CAVE) from 1.00. The final product was then multiplied by 100 (% INH=(1.00−SAVE/CAVE)×100). The concentration at which 50% inhibition (IC50) of cell proliferation is obtained was determined from the linear regression of a plot of the logarithm of the concentration versus percent inhibition.

Compound	IC50 [nM]
CC(C)(C)C[C@@H]1N(CC2CC2)[C@@H](C(=O)Nc2ccc(C(=O)O)cc2)[C@H](c2cccc(Cl)c2F)[C@@]1(C#N)c1ccc(Cl)cc1F (racemic) [Example 34, rac-4-{[(2R,3S,4R,5S)-3-(3-chloro-2-fluoro-phenyl)-4-(4-chloro-2-fluoro-phenyl)-4-cyano-1-cyclopropylmethyl-5-(2,2-dimethyl-propyl)-pyrrolidine-2-carbonyl]-amino}-benzoic acid]	300
CC(C)CN1[C@@H](CC(C)(C)C)[C@](C#N)(c2ccc(Cl)cc2F)[C@@H](c2cccc(Cl)c2F)[C@@H]1C(=O)Nc1ccc(C(=O)O)cc1 [Example 32, 4-{[(2R,3S,4R,5S)-3-(3-chloro-2-fluoro-phenyl)-4-(4-chloro-2-fluoro-phenyl)-4-cyano-5-(2,2-dimethyl-propyl)-1-isobutyl-pyrrolidine-2-carbonyl]-amino}-benzoic acid]	660
COC(=O)c1nc(NC(=O)[C@H]2[C@H](c3cccc(Cl)c3F)[C@@](C#N)(c3ccc(Cl)cc3F)[C@H](CC(C)(C)C)N2C)n[nH]1 [Example 54, 5-{[(2R,3S,4R,5S)-3-(3-chloro-2-fluoro-phenyl)-4-(4-chloro-2-fluoro-phenyl)-4-cyano-5-(2,2-dimethyl-propyl)-1-methyl-pyrrolidine-2-carbonyl]-amino}-2H-[1,2,4]triazole-3-carboxylic acid methyl ester]	750
COc1cc(C(N)=O)ccc1NC(=O)[C@H]1[C@H](c2cccc(Cl)c2F)[C@@](C#N)(c2ccc(Cl)cc2F)[C@H](CC(C)(C)C)N1C (racemic) [Example 50, rac-(2R,3S,4R,5S)-3-(3-chloro-2-fluoro-phenyl)-4-(4-chloro-2-fluoro-phenyl)-4-cyano-5-(2,2-dimethyl-propyl)-1-methyl-pyrrolidine-2-carboxylic acid (4-carbamoyl-2-methoxy-phenyl)-amide]	370
CC(C)(C)C[C@@H]1N(CCC2CCCCC2)[C@@H](C(=O)Nc2ccc(C(=O)O)cc2)[C@H](c2cccc(Cl)c2F)[C@@]1(C#N)c1ccc(Cl)cc1F (racemic) [Example 37, rac-4-{[(2R,3S,4R,5S)-3-(3-chloro-2-fluoro-phenyl)-4-(4-chloro-2-fluoro-phenyl)-4-cyano-1-(2-cyclohexyl-ethyl)-5-(2,2-dimethyl-propyl)-pyrrolidine-2-carbonyl]-amino}-benzoic acid]	110
CN1[C@@H](CC(C)(C)C)[C@](C#N)(c2ccc(Cl)cc2F)[C@@H](c2cccc(Cl)c2F)[C@@H]1C(=O)Nc1ccn(CC(C)(C)O)n1 [Example 58, (2R,3S,4R,5S)-3-(3-chloro-2-fluoro-phenyl)-4-(4-chloro-2-fluoro-phenyl)-4-cyano-5-(2,2-dimethyl-propyl)-1-methyl-pyrrolidine-2-carboxylic acid [1-(2-hydroxy-2-methyl-propyl)-1H-pyrazol-3-yl]-amide]	3590
CN1[C@@H](CC(C)(C)C)[C@](C#N)(c2ccc(Cl)cc2F)[C@@H](c2cccc(Cl)c2F)[C@@H]1C(=O)Nc1ncc(C(=O)O)[nH]1 [Example 55, 2-{[(2R,3S,4R,5S)-3-(3-chloro-2-fluoro-phenyl)-4-(4-chloro-2-fluoro-phenyl)-4-cyano-5-(2,2-dimethyl-propyl)-1-methyl-pyrrolidine-2-carbonyl]-amino}-3H-imidazole-4-carboxylic acid trifluoracetate salt]	4000
CN1[C@@H](CC(C)(C)C)[C@](C#N)(c2ccc(Cl)cc2F)[C@@H](c2cccc(Cl)c2F)[C@@H]1C(=O)Nc1ccc(C(C)(C)C(=O)O)cc1 [Example 27, 2-(4-{[(2R,3S,4R,5S)-3-(3-chloro-2-fluoro-phenyl)-4-(4-chloro-2-fluoro-phenyl)-4-cyano-5-(2,2-dimethyl-propyl)-1-methyl-pyrrolidine-2-carbonyl]amino}-phenyl)-2-methyl-propionic acid]	1950

Now from value to molecule:

IC50 [nM]	Compound
90	COc1cc(NC(=O)[C@H]2[C@H](c3cccc(Cl)c3F)[C@@](C#N)(c3ccc(Cl)cc3F)[C@H](CC(C)(C)C)N2CC2CC2)ccc1C(=O)O [Example 38, 4-{[(2R,3S,4R,5S)-3-(3-chloro-2-fluoro-phenyl)-4-(4-chloro-2-fluoro-phenyl)-4-cyano-1-cyclopropylmethyl-5-(2,2-dimethyl-propyl)-pyrrolidine-2-carbonyl]-amino}-2-methoxy-benzoic acid]
620	C=CCCCN1[C@@H](CC(C)(C)C)[C@](C#N)(c2ccc(Cl)cc2F)[C@@H](c2cccc(Cl)c2F)[C@@H]1C(=O)Nc1ccc(C(=O)O)c(OC)c1 (racemic) [Example 47, 4-{[(2R,3S,4R,5S)-3-(3-chloro-2-fluoro-phenyl)-4-(4-chloro-2-fluoro-phenyl)-4-cyano-5-(2,2-dimethyl-propyl)-1-pent-4-enyl-pyrrolidine-2-carbonyl]-amino}-2-methoxy-benzoic acid]
1310	CCN1[C@@H](CC(C)(C)C)[C@](C#N)(c2ccc(Cl)cc2F)[C@@H](c2cccc(Cl)c2F)[C@@H]1C(=O)Nc1ccc(C(=O)O)cc1 (racemic) [Example 33, 4-{[(2R,3S,4R,5S)-3-(3-chloro-2-fluoro-phenyl)-4-(4-chloro-2-fluoro-phenyl)-4-cyano-5-(2,2-dimethyl-propyl)-1-ethyl-pyrrolidine-2-carbonyl]-amino}benzoic acid]
1140	CCCCN1[C@@H](CC(C)(C)C)[C@](C#N)(c2ccc(Cl)cc2F)[C@@H](c2cccc(Cl)c2F)[C@@H]1C(=O)Nc1ccc(C(=O)O)c(OC)c1 (racemic) [Example 43, 4-{[(2R,3S,4R,5S)-1-butyl-3-(3-chloro-2-fluoro-phenyl)-4-(4-chloro-2-fluoro-phenyl)-4-cyano-5-(2,2-dimethyl-propyl)-pyrrolidine-2-carbonyl]-amino}-2-methoxy-benzoic acid]
40	COc1cc(C(=O)O)ccc1NC(=O)[C@H]1[C@H](c2cccc(Cl)c2F)[C@@](C#N)(c2ccc(Cl)cc2F)[C@H](CC(C)(C)C)N1C (racemic) [Example 39, rac-4-{[(2R,3S,4R,5S)-3-(3-chloro-2-fluoro-phenyl)-4-(4-chloro-2-fluoro-phenyl)-4-cyano-5-(2,2-dimethyl-propyl)-1-methyl-pyrrolidine-2-carbonyl]-amino}-3-methoxy-benzoic acid]
130	COc1cc(C(=O)O)ccc1NC(=O)[C@H]1[C@H](c2cccc(Cl)c2F)[C@@](C#N)(c2ccc(Cl)cc2F)[C@H](CC(C)(C)C)N1CC1CC1 (racemic) [Example 40, rac-4-{[(2R,3S,4R,5S)-3-(3-chloro-2-fluoro-phenyl)-4-(4-chloro-2-fluoro-phenyl)-4-cyano-1-cyclopropylmethyl-5-(2,2-dimethyl-propyl)-pyrrolidine-2-carbonyl]-amino}-3-methoxy-benzoic acid]
320	CN1[C@@H](CC(C)(C)C)[C@](C#N)(c2ccc(Cl)cc2F)[C@@H](c2cccc(Cl)c2F)[C@@H]1C(=O)Nc1ccc(C(=O)O)c(F)c1 [Example 26, 4-{[(2R,3S,4R,5S)-3-(3-chloro-2-fluoro-phenyl)-4-(4-chloro-2-fluoro-phenyl)-4-cyano-5-(2,2-dimethyl-propyl)-1-methyl-pyrrolidine-2-carbonyl]-amino}-2-fluoro-benzoic acid trifluoroacetate salt]
420	COc1cc(NC(=O)[C@H]2[C@H](c3cccc(Cl)c3F)[C@@](C#N)(c3ccc(Cl)cc3F)[C@H](CC(C)(C)C)N2CCC(C)C)ccc1C(=O)O (racemic) [Example 45, 4-{[(2R,3S,4R,5S)-3-(3-chloro-2-fluoro-phenyl)-4-(4-chloro-2-fluoro-phenyl)-4-cyano-5-(2,2-dimethyl-propyl)-1-(3-methyl-butyl)-pyrrolidine-2-carbonyl]-amino}-2-methoxy-benzoic acid]
220	CCN1[C@@H](CC(C)(C)C)[C@](C#N)(c2ccc(Cl)cc2F)[C@@H](c2cccc(Cl)c2F)[C@@H]1C(=O)Nc1ccc(C(=O)O)cc1OC (racemic) [Example 44, rac-4-{[(2R,3S,4R,5S)-3-(3-chloro-2-fluoro-phenyl)-4-(4-chloro-2-fluoro-phenyl)-4-cyano-5-(2,2-dimethyl-propyl)-1-ethyl-pyrrolidine-2-carbonyl]-amino}-3-methoxy-benzoic acid]
80	C#CCN1[C@@H](CC(C)(C)C)[C@](C#N)(c2ccc(Cl)cc2F)[C@@H](c2cccc(Cl)c2F)[C@@H]1C(=O)Nc1ccc(C(=O)O)cc1OC [Example 62, 4-{[(2R,3S,4R,5S)-3-(3-chloro-2-fluoro-phenyl)-4-(4-chloro-2-fluoro-phenyl)-4-cyano-5-(2,2-dimethyl-propyl)-1-prop-2-ynyl-pyrrolidine-2-carbonyl]-amino}-3-methoxy-benzoic acid]
